What is called AC50 is the midpoint of the concentration-response curve, whichever way the signal moves.

This test deals with T1, human PAH with the R408W mutation (Homo sapiens, UniProt P00439, R408W).
T1 construct: expressed in transfected cells
T1 sequence (P00439 1-452 R408W): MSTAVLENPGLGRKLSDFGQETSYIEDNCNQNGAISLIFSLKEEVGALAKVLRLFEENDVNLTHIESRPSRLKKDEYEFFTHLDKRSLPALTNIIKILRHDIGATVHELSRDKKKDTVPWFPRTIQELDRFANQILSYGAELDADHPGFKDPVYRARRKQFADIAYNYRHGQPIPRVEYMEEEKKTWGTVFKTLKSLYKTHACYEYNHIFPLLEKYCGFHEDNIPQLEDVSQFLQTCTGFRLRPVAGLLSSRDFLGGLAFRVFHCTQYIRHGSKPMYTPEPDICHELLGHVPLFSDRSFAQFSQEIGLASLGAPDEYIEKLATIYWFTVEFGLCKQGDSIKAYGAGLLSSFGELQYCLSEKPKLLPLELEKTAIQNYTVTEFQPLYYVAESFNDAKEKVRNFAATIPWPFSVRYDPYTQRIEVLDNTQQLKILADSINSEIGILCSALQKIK
In words: Cell Based Phenylalanine Flux Assay.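 Further: Ten-point dose curve from 2-fold serial dilutions, run in duplicate at 0.5% DMSO final, tracer step used 20 µM sepiapterin and 800 µM labeled phenylalanine.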 To be noted: A375 cells expressing human R408W PAH; 24 hrs compound incubation; 13C-Tyrosine by LC-MS; average where tested multiple times; read-out: AC50.
Turning to `COc1cccn2nc([C@H]3c4nc[nH]c4CCN3C(=O)c3nnc(-c4ccccn4)o3)cc12` [Example 778, (R)-(4-(4-methoxypyrazolo [1,5-a]pyridin-2-yl)-6,7-dihydro-1H-imidazo[4,5-c]pyridin-5(4H)-yl)(5-(pyridin-2-yl)-1,3,4-oxadiazol-2-yl)methanone], the AC50 is greater than 5000 nM. For `O=C(c1ccnn1C(F)F)N1CCc2[nH]cnc2[C@@H]1c1cc2c(Cl)cccn2n1` [Example 783, (R)-(4-(4-chloropyrazolo [1,5-a]pyridin-2-yl)-6,7-dihydro-1H-imidazo [4,5-c]pyridin-5(4H)-yl)(1-(difluoromethyl)-1H-pyrazol-5-yl)methanone], the AC50 lay within 1000 to 5000 nM.

As to `Cc1c([C@H]2c3nc[nH]c3CCN2C(=O)c2oc(C(C)(C)O)nc2C(F)F)nn2ccccc12` [Example 787, (R)-(4-(difluoromethyl)-2-(2-hydroxypropan-2-yl)oxazol-5-yl)(4-(3-methylpyrazolo[1,5-a]pyridin-2-yl)-6,7-dihydro-1H-imidazo [4,5-c]pyridin-5(4H)-yl)methanone], the AC50 was in the range of 1000 to 5000 nM. As for `COc1ccc(-c2nnc(C(=O)N3CCc4[nH]cnc4[C@H]3c3cc4c(F)cccn4n3)o2)nc1` [Example 788, (S)-(4-(4-fluoropyrazolo[1,5-a]pyridin-2-yl)-6,7-dihydro-1H-imidazo[4,5-c]pyridin-5(4H)-yl)(5-(5-methoxypyridin-2-yl)-1,3,4-oxadiazol-2-yl)methanone], the AC50 was less than 500 nM. For `O=C(c1nnc(-c2ncccc2F)o1)N1CCc2[nH]cnc2[C@H]1c1cc2c(F)cccn2n1` [Example 791, (S)-(4-(4-fluoropyrazolo[1,5-a]pyridin-2-yl)-6,7-dihydro-1H-imidazo[4,5-c]pyridin-5(4H)-yl)(5-(3-fluoropyridin-2-yl)-1,3,4-oxadiazol-2-yl) methanone] the value was less than 500 nM; for `O=C(c1nnc(-c2cnn(C(F)F)c2)o1)N1CCc2[nH]cnc2[C@@H]1c1cc2c(F)cccn2n1` [Example 797, (R)-(5-(1-(difluoromethyl)-1H-pyrazol-4-yl)-1,3,4-oxadiazol-2-yl)(4-(4-fluoropyrazolo[1,5-a]pyridin-2-yl)-6,7-dihydro-1H-imidazo[4,5-c]pyridin-5(4H)-yl)methanone], greater than 5000 nM; for `Cc1cccc2cc([C@H]3c4nc[nH]c4CCN3C(=O)c3nnc(-c4ccccn4)o3)nn12` [Example 799, (R)-(4-(7-methylpyrazolo [1,5-a]pyridin-2-yl)-6,7-dihydro-1H-imidazo[4,5-c]pyridin-5(4H)-yl)(5-(pyridin-2-yl)-1,3,4-oxadiazol-2-yl) methanone], greater than 5000 nM. As for `Cc1cccc2cc([C@@H]3c4nc[nH]c4CCN3C(=O)c3nnc(-c4cnn(C)c4)o3)nn12` [Example 800, (S)-(5-(1-methyl-1H-pyrazol-4-yl)-1,3,4-oxadiazol-2-yl)(4-(7-methylpyrazolo[1,5-a]pyridin-2-yl)-6,7-dihydro-1H-imidazo[4,5-c]pyridin-5(4H)-yl)methanone], the AC50 lay in the range of 500 to 1000 nM. Turning to `Cc1cccc2cc([C@@H]3c4nc[nH]c4CCN3C(=O)c3nnc(-c4ccn(C)n4)o3)nn12` [Example 802, (S)-(5-(1-methyl-1H-pyrazol-3-yl)-1,3,4-oxadiazol-2-yl)(4-(7-methylpyrazolo[1,5-a]pyridin-2-yl)-6,7-dihydro-1H-imidazo[4,5-c]pyridin-5(4H)-yl)methanone], the AC50 was less than 500 nM.

For `Cc1ccc2cc([C@@H]3c4nc[nH]c4CCN3C(=O)c3oc(C(C)(C)O)nc3C(F)F)nn2c1` [Example 804], the AC50 is less than 500 nM. For `Cc1cccn2nc([C@@H]3c4nc[nH]c4CCN3C(=O)c3nnc(-c4cn(C)cn4)o3)cc12` [Example 806, (S)-(5-(1-methyl-1H-imidazol-4-yl)-1,3,4-oxadiazol-2-yl)(4-(4-methylpyrazolo[1,5-a]pyridin-2-yl)-6,7-dihydro-1H-imidazo[4,5-c]pyridin-5(4H)-yl)methanone] the value was 500 to 1000 nM. For `O=C(c1nnc(-c2ccccn2)o1)N1CCc2[nH]cnc2[C@H]1c1cc2c(C(F)(F)F)cccn2n1` [Example 826, (S)-(5-(pyridin-2-yl)-1,3,4-oxadiazol-2-yl)(4-(4-(trifluoromethyl)pyrazolo [1,5-a]pyridin-2-yl)-6,7-dihydro-1H-imidazo[4,5-c]pyridin-5(4H)-yl)methanone] the value was less than 500 nM.

For the compound `O=C(c1nnc(-c2ccccn2)o1)N1CCc2[nH]cnc2[C@@H]1c1cc2c(C(F)(F)F)cccn2n1` [Example 827, (R)-(5-(pyridin-2-yl)-1,3,4-oxadiazol-2-yl)(4-(4-(trifluoromethyl)pyrazolo [1,5-a]pyridin-2-yl)-6,7-dihydro-1H-imidazo[4,5-c]pyridin-5(4H)-yl)methanone], the AC50 is greater than 5000 nM.

As to `O=C(c1nnc(-c2cnn(C3CCC3)c2)o1)N1CCc2[nH]cnc2[C@@H]1c1cc2c(F)cccn2n1` [Example 833, (R)-(5-(1-cyclobutyl-1H-pyrazol-4-yl)-1,3,4-oxadiazol-2-yl)(4-(4-fluoropyrazolo[1,5-a]pyridin-2-yl)-6,7-dihydro-1H-imidazo [4,5-c]pyridin-5(4H)-yl) methanone], the AC50 is greater than 5000 nM. As to `Cc1cccn2nc([C@H]3c4nc[nH]c4CCN3C(=O)c3ncnn3C)cc12` [Example 839, (R)-(1-methyl-1H-1,2,4-triazol-5-yl)(4-(4-methylpyrazolo[1,5-a]pyridin-2-yl)-6,7-dihydro-1H-imidazo[4,5-c]pyridin-5(4H)-yl)methanone], the half-maximal activity concentration (AC50) fell in the range of 1000 to 5000 nM.

For the compound `O=C(c1ccnn1C1CC1)N1CCc2[nH]cnc2[C@H]1c1cc2c(F)cccn2n1` [Example 848, (S)-(1-cyclopropyl-1H-pyrazol-5-yl)(4-(4-fluoropyrazolo[1,5-a]pyridin-2-yl)-6,7-dihydro-1H-imidazo[4,5-c]pyridin-5(4H)-yl)methanone], the AC50 was less than 500 nM. For the compound `Cc1cccn2nc([C@@H]3c4nc[nH]c4CCN3C(=O)c3cc(C(F)F)nn3C)cc12` [Example 867, (S)-(3-(difluoromethyl)-1-methyl-1H-pyrazol-5-yl)(4-(4-methylpyrazolo[1,5-a]pyridin-2-yl)-6,7-dihydro-1H-imidazo[4,5-c]pyridin-5(4H)-yl)methanone], the AC50 is less than 500 nM. `Cc1cccn2nc([C@H]3c4nc[nH]c4CCN3C(=O)c3nnc(-c4ccc(F)cn4)o3)cc12` [Example 874, (R)-(5-(5-fluoropyridin-2-yl)-1,3,4-oxadiazol-2-yl)(4-(4-methylpyrazolo[1,5-a]pyridin-2-yl)-6,7-dihydro-1H-imidazo[4,5-c]pyridin-5(4H)-yl)methanone]: the AC50 was greater than 5000 nM. With `Cc1cc(-c2nnc(C(=O)N3CCc4[nH]cnc4[C@H]3c3cc4c(F)cccn4n3)o2)nn1C` [Example 883, (S)-(5-(1,5-dimethyl-1H-pyrazol-3-yl)-1,3,4-oxadiazol-2-yl)(4-(4-fluoropyrazolo[1,5-a]pyridin-2-yl)-6,7-dihydro-1H-imidazo[4,5-c]pyridin-5(4H)-yl)methanone], the AC50 is less than 500 nM. For the compound `Cc1cccn2nc([C@@H]3c4nc[nH]c4CCN3C(=O)c3nnc(-c4cccnc4)o3)cc12` [Example 894, (S)-(4-(4-methylpyrazolo [1,5-a]pyridin-2-yl)-6,7-dihydro-1H-imidazo[4,5-c]pyridin-5(4H)-yl)(5-(pyridin-3-yl)-1,3,4-oxadiazol-2-yl) methanone], the AC50 was less than 500 nM.

On to `Cc1cccc2cc([C@@H]3c4nc[nH]c4CCN3C(=O)c3nnc(-c4ncccc4F)o3)nn12` [Example 912, (S)-(5-(3-fluoropyridin-2-yl)-1,3,4-oxadiazol-2-yl)(4-(7-methylpyrazolo[1,5-a]pyridin-2-yl)-6,7-dihydro-1H-imidazo[4,5-c]pyridin-5(4H)-yl)methanone], for which the AC50 was less than 500 nM. For the compound `Cc1cccc2cc([C@H]3c4nc[nH]c4CCN3C(=O)c3nnc(-c4cnn(C(F)F)c4)o3)nn12` [Example 915, (R)-(5-(1-(difluoromethyl)-1H-pyrazol-4-yl)-1,3,4-oxadiazol-2-yl)(4-(7-methylpyrazolo[1,5-a]pyridin-2-yl)-6,7-dihydro-1H-imidazo[4,5-c]pyridin-5(4H)-yl)methanone], the AC50 is greater than 5000 nM. For `Cc1cccn2nc([C@H]3c4nc[nH]c4CCN3C(=O)c3nnc(C4CC4)o3)cc12` [Example 925, (R)-(5-cyclopropyl-1,3,4-oxadiazol-2-yl)(4-(4-methylpyrazolo[1,5-a]pyridin-2-yl)-6,7-dihydro-1H-imidazo[4,5-c]pyridin-5(4H)-yl)methanone] the value was greater than 5000 nM; for `Cc1cccc2cc([C@H]3c4nc[nH]c4CCN3C(=O)c3nnc(C(C)(C)F)o3)nn12` [Example 939, (R)-(5-(2-fluoropropan-2-yl)-1,3,4-oxadiazol-2-yl)(4-(7-methylpyrazolo[1,5-a]pyridin-2-yl)-6,7-dihydro-1H-imidazo[4,5-c]pyridin-5(4H)-yl)methanone], greater than 5000 nM; for `O=C(c1ocnc1C(F)F)N1CCc2[nH]cnc2[C@H]1c1cc2cccc(Cl)n2n1` [Example 958, (S)-(4-(7-chloropyrazolo [1,5-a]pyridin-2-yl)-6,7-dihydro-1H-imidazo[4,5-c]pyridin-5(4H)-yl)(4-(difluoromethyl)oxazol-5-yl)methanone], less than 500 nM. Turning to `O=C(c1nnc(-c2cnccn2)o1)N1CCc2[nH]cnc2[C@H]1c1cc2c(F)cccn2n1` [Example 962, (S)-(4-(4-fluoropyrazolo[1,5-a]pyridin-2-yl)-6,7-dihydro-1H-imidazo[4,5-c]pyridin-5(4H)-yl)(5-(pyrazin-2-yl)-1,3,4-oxadiazol-2-yl)methanone], the AC50 was less than 500 nM.
